For experiment [1], the system named is Pseudomonas aeruginosa. Briefly: Antibacterial activity against Pseudomonas aeruginosa PAO397 [PAO1 d(mexAB-oprM) d(mexCD-oprJ) d(mexEF-oprN) d(mexJKL) d(mexXY) d(opmH)] (CO-ADD:GN_211); MIC in CAMBH media using NBS plates, by OD(600). The conditions noted are these: ASSAY_TEST Inhibition of Bacterial Growth, detection method Absorption (OD600), MEDIA CAMHB, plate type 384well, CORNING #3640, time 18 hr. It is filed as functional.

In the next experiment the test system is Acinetobacter baumannii. Description: microbe, parasite or virus in culture. The note with it: ATCC 19606, 18 h, ASSAY_TEST Inhibition of Bacterial Growth, detection method Absorption (OD600), MEDIA CAMHB, plate type 384well, NBS, CORNING #3640.
Experiment [2] relates to Pseudomonas aeruginosa. Briefly: microbe, parasite or virus in culture. The note with it: ATCC 27853, 18 h, ASSAY_TEST Inhibition of Bacterial Growth, detection method Absorption (OD600), MEDIA CAMHB, plate type 384well, NBS, CORNING #3640.
Description: Antibacterial activity against Pseudomonas aeruginosa ATCC 27853 (CO-ADD:GN_042); MIC in CAMBH media using NBS plates, by OD(600)

Values after ≈ are worked out from the molar mass of the structure shown. Bounds are passed on as bounds.

Description for Acinetobacter baumannii: Antibacterial activity against Acinetobacter baumannii ATCC 19606 (CO-ADD:GN_034); MIC in CAMBH media using NBS plates, by OD600

As for `Cc1cccc(OCC(O)Cn2ccnc2C)c1` (centres undefined), the MIC with Pseudomonas aeruginosa [1], in the experiment with Acinetobacter baumannii and in the experiment with Pseudomonas aeruginosa [2] was over 300 µM throughout.

In the case of `O=C(c1cnsn1)N1CCN(c2ccccn2)CC1`, the MIC with Pseudomonas aeruginosa [1], against Acinetobacter baumannii and in the experiment with Pseudomonas aeruginosa [2] was over 300 µM in each case.

In the case of `Cc1c(C(=O)NC2=NCCS2)oc2ccccc12`, the MIC in the experiment with Pseudomonas aeruginosa [1], in the experiment with Acinetobacter baumannii and with Pseudomonas aeruginosa [2] was over 300 µM throughout.

With `CCc1c(C)nc2sc(C(N)=O)c(N)c2c1C`, the MIC in the experiment on Pseudomonas aeruginosa [1], in the experiment with Acinetobacter baumannii and against Pseudomonas aeruginosa [2] was over 300 µM in each case.

Consider `Nc1ccnc(-c2ccccc2)c1`, for which the MIC in the experiment on Pseudomonas aeruginosa [1], against Acinetobacter baumannii and against Pseudomonas aeruginosa [2] was over 300 µM in each case.

As to `NCC(O)c1ccc(-c2ccccc2)cc1` (centres undefined), the MIC in the experiment with Pseudomonas aeruginosa [1], against Acinetobacter baumannii and in the experiment with Pseudomonas aeruginosa [2] was over 300 µM each time.

For `NCc1cccc(-c2ccccn2)n1`, the MIC is 200 µM (≈ 37 µg/mL) against Pseudomonas aeruginosa [1], over 300 µM in the experiment with Acinetobacter baumannii and 300 µM (≈ 55.6 µg/mL) against Pseudomonas aeruginosa [2].

In the case of `O=C(c1c(O)cccc1F)N1CCc2cnccc21`, the MIC against Pseudomonas aeruginosa [1], against Acinetobacter baumannii and with Pseudomonas aeruginosa [2] was over 300 µM each time.

`COc1ccc(OC)c(NC(=O)c2ccccn2)c1`: the MIC against Pseudomonas aeruginosa [1], against Acinetobacter baumannii and against Pseudomonas aeruginosa [2] was over 300 µM in each case.

Regarding `Nc1cnccc1N1CCCCC1`, the MIC against Pseudomonas aeruginosa [1], in the experiment with Acinetobacter baumannii and in the experiment with Pseudomonas aeruginosa [2] was over 300 µM in each case.

As to `Cc1cc(NC(C)CO)nc2ccccc12` (centres undefined), the MIC against Pseudomonas aeruginosa [1], against Acinetobacter baumannii and against Pseudomonas aeruginosa [2] was over 300 µM in each case.

On to `CCCOc1ccc(CN)cc1`, for which the MIC in the experiment with Pseudomonas aeruginosa [1], with Acinetobacter baumannii and against Pseudomonas aeruginosa [2] was over 300 µM in each case.

Turning to `CC1COC2(CCN(C(=O)c3ccc(Cl)s3)CC2)O1` (centres undefined), the MIC in the experiment on Pseudomonas aeruginosa [1], against Acinetobacter baumannii and against Pseudomonas aeruginosa [2] was over 300 µM throughout.

Turning to `NC(=O)CSc1nc(-c2ccc(Br)cc2)c[nH]1`, the figures for the MIC against Pseudomonas aeruginosa [1], with Acinetobacter baumannii and in the experiment on Pseudomonas aeruginosa [2] were 300 µM (≈ 93.7 µg/mL), over 300 µM and over 300 µM, respectively.

Take `FC(F)Oc1cccc(N2CCNCC2)c1`: the MIC in the experiment with Pseudomonas aeruginosa [1], in the experiment on Acinetobacter baumannii and against Pseudomonas aeruginosa [2] was over 300 µM throughout.

Regarding `Cc1cccc(C(=O)Nc2ncc(C)s2)n1`, the MIC against Pseudomonas aeruginosa [1], against Acinetobacter baumannii and with Pseudomonas aeruginosa [2] was over 300 µM throughout.

As for `NCc1cnn(-c2ccc(Cl)cc2)c1`, the MIC in the experiment with Pseudomonas aeruginosa [1], in the experiment on Acinetobacter baumannii and against Pseudomonas aeruginosa [2] was over 300 µM throughout.

`Cc1ccc(C2(O)CCNC2)cc1` (centres undefined): the results for the MIC in the experiment with Pseudomonas aeruginosa [1], against Acinetobacter baumannii and in the experiment on Pseudomonas aeruginosa [2] were over 300 µM, over 300 µM and 300 µM (≈ 53.2 µg/mL), respectively.

With `CCc1cccc2c1OCCC2N` (centres undefined), the MIC against Pseudomonas aeruginosa [1], with Acinetobacter baumannii and against Pseudomonas aeruginosa [2] was over 300 µM throughout.

Regarding `CC[C@H](CO)Nc1ccnc2cc(Br)cnc12`, the MIC in the experiment on Pseudomonas aeruginosa [1], with Acinetobacter baumannii and with Pseudomonas aeruginosa [2] was over 300 µM throughout.

For the molecule `O=C(NCCO)Nc1nc2ccccc2s1`, the MIC against Pseudomonas aeruginosa [1], against Acinetobacter baumannii and in the experiment with Pseudomonas aeruginosa [2] was over 300 µM each time.

`OCCNCCNCc1ccc(-c2ccccc2Cl)o1`: the MIC against Pseudomonas aeruginosa [1], with Acinetobacter baumannii and against Pseudomonas aeruginosa [2] was over 300 µM each time.

For `NCCNS(=O)(=O)c1ccc(-c2ccccc2)cc1`, the MIC in the experiment with Pseudomonas aeruginosa [1], against Acinetobacter baumannii and with Pseudomonas aeruginosa [2] was over 300 µM throughout.

As for `c1ccc(N2CCN(c3ncccn3)CC2)nc1`, the MIC in the experiment with Pseudomonas aeruginosa [1], with Acinetobacter baumannii and in the experiment on Pseudomonas aeruginosa [2] was over 300 µM each time.

Consider `O=C(CSCCO)Nc1ncc(-c2ccccc2)s1`, for which the MIC against Pseudomonas aeruginosa [1] is 200 µM (≈ 58.9 µg/mL); with Acinetobacter baumannii it was over 300 µM; in the experiment with Pseudomonas aeruginosa [2], over 300 µM.

Turning to `CN1CCCC1CCSc1nc(N)c(C#N)cc1C#N` (centres undefined), the MIC in the experiment on Pseudomonas aeruginosa [1], against Acinetobacter baumannii and against Pseudomonas aeruginosa [2] was over 300 µM each time.

`CC(CO)NC(=O)Nc1nc(-c2ccccc2)ns1` (centres undefined): the MIC against Pseudomonas aeruginosa [1] was 200 µM (≈ 55.7 µg/mL); against Acinetobacter baumannii, over 300 µM; in the experiment on Pseudomonas aeruginosa [2], over 300 µM.

As to `Cc1cc(C(=O)Nc2ccc3c(c2)CCN3)n(C)n1`, the MIC in the experiment with Pseudomonas aeruginosa [1], with Acinetobacter baumannii and in the experiment on Pseudomonas aeruginosa [2] was over 300 µM each time.

Take `CNC(=O)CCCNC(=O)Nc1nc2ccccc2s1`: the MIC against Pseudomonas aeruginosa [1], in the experiment on Acinetobacter baumannii and against Pseudomonas aeruginosa [2] was over 300 µM each time.

With `OC1(Cn2ccnn2)CCCNC1` (centres undefined), the MIC against Pseudomonas aeruginosa [1], in the experiment with Acinetobacter baumannii and against Pseudomonas aeruginosa [2] was over 300 µM each time.

Take `O=C1NC(Cc2ccccc2)C(=O)Nc2ccccc21` (centres undefined): the MIC with Pseudomonas aeruginosa [1], against Acinetobacter baumannii and with Pseudomonas aeruginosa [2] was over 300 µM throughout.

With `Cc1ccc(OC(C)CN)cc1` (centres undefined), the MIC against Pseudomonas aeruginosa [1], against Acinetobacter baumannii and in the experiment with Pseudomonas aeruginosa [2] was over 300 µM in each case.

In the case of `CS(=O)(=O)CCNc1ccnc2ccc(Br)cc12`, the MIC against Pseudomonas aeruginosa [1], against Acinetobacter baumannii and against Pseudomonas aeruginosa [2] was over 300 µM throughout.

Consider `CN(C)c1nc(Cl)c(CN)s1`, for which the values for the MIC in the experiment on Pseudomonas aeruginosa [1], with Acinetobacter baumannii and with Pseudomonas aeruginosa [2] were 200 µM (≈ 38.3 µg/mL), over 300 µM and 200 µM (≈ 38.3 µg/mL), respectively.

For the molecule `Cc1c[nH]c2ccccc2c1=N`, the MIC in the experiment on Pseudomonas aeruginosa [1], against Acinetobacter baumannii and in the experiment on Pseudomonas aeruginosa [2] was over 300 µM in each case.

In the case of `CC(N)c1nc(-c2ccc(Br)cc2)c[nH]1` (centres undefined), the MIC in the experiment with Pseudomonas aeruginosa [1], against Acinetobacter baumannii and in the experiment on Pseudomonas aeruginosa [2] was over 300 µM throughout.

Take `NC(=O)C1CCN(Cc2ccc(Br)c3cccnc23)C1` (centres undefined): the MIC with Pseudomonas aeruginosa [1], against Acinetobacter baumannii and in the experiment on Pseudomonas aeruginosa [2] was over 300 µM throughout.

For `COc1ccc(F)c(N2CCNCC2)c1`, the MIC in the experiment with Pseudomonas aeruginosa [1], against Acinetobacter baumannii and in the experiment with Pseudomonas aeruginosa [2] was over 300 µM each time.

With `CCC1Oc2c(Cl)cccc2NC1=O` (centres undefined), the MIC in the experiment with Pseudomonas aeruginosa [1], against Acinetobacter baumannii and with Pseudomonas aeruginosa [2] was over 300 µM in each case.

Take `CCOc1nnc(CN2CCC(C(N)=O)CC2)s1`: the MIC in the experiment on Pseudomonas aeruginosa [1], in the experiment on Acinetobacter baumannii and with Pseudomonas aeruginosa [2] was over 300 µM throughout.

On to `O=C(CSc1ncn[nH]1)Nc1ncc(Br)s1`, for which the MIC against Pseudomonas aeruginosa [1], against Acinetobacter baumannii and with Pseudomonas aeruginosa [2] was over 300 µM each time.

In the case of `CC(O)CN1C(=O)C=CC1=O` (centres undefined), the MIC against Pseudomonas aeruginosa [1], in the experiment on Acinetobacter baumannii and with Pseudomonas aeruginosa [2] was over 300 µM in each case.

As for `NCc1cnn(-c2ccc(Br)cc2)c1`, the MIC with Pseudomonas aeruginosa [1], with Acinetobacter baumannii and in the experiment with Pseudomonas aeruginosa [2] was over 300 µM each time.

Regarding `COc1ncccc1-c1csc(NCCSC)n1`, the MIC against Pseudomonas aeruginosa [1], in the experiment on Acinetobacter baumannii and against Pseudomonas aeruginosa [2] was over 300 µM in each case.

On to `CNCCC1CCN(c2ccncc2)CC1`, for which the MIC against Pseudomonas aeruginosa [1], against Acinetobacter baumannii and against Pseudomonas aeruginosa [2] was over 300 µM each time.

In the case of `COc1cccc2c(N)c(C)cnc12`, the MIC against Pseudomonas aeruginosa [1], with Acinetobacter baumannii and with Pseudomonas aeruginosa [2] was over 300 µM throughout.

Regarding `Cn1cc(NC(=O)c2ccc(Br)s2)cc1C(N)=O`, the MIC in the experiment on Pseudomonas aeruginosa [1], in the experiment on Acinetobacter baumannii and in the experiment on Pseudomonas aeruginosa [2] was over 300 µM throughout.

For `CC(CSc1n[nH]c(-c2ccccn2)n1)CS(C)(=O)=O` (centres undefined), the MIC against Pseudomonas aeruginosa [1], against Acinetobacter baumannii and with Pseudomonas aeruginosa [2] was over 300 µM throughout.
